According to US10499644B2, “Substituted oxadiazoles for combating phytopathogenic fungi” (BASF SE, priority 2015, dated 2019):

Experiments:
Puccinia recondita [1] = assay: Preventative control of brown rust on wheat (glass house trial); type: in vivo, Puccinia recondita on wheat; conditions: 63 ppm active compound, sprayed 1 day before inoculation, assessed after 6 days; untreated plants 90%
Description: (§1) The spray solutions were prepared in several steps: the stock solutions were prepared: a mixture of acetone and/or dimethylsulfoxide and the wetting agent/emulsifier Wettol, which is based on ethoxylated alkylphenoles, in a relation (volume) solvent-emulsifier of 99 to 1 was added to 25 mg of the compound to give a total of 5 ml. Water was then added to total volume of 100 ml. This stock solution was diluted with the described solvent-emulsifier-water mixture to the given concentration.
The first two developed leaves of pot-grown wheat seedling were sprayed to run-off with an aqueous suspension, containing the concentration of active ingredient or their mixture as described below. The next day the plants were inoculated with spores of Puccinia recondita. To ensure the success the artificial inoculation, the plants were transferred to a humid chamber without light and a relative humidity of 95 to 99% and 20 to 24° C. for 24 hours. Then the trial plants were cultivated for 6 days in a greenhouse chamber at 20 to 24° C. and a relative humidity between 65 and 70%. The extent of fungal attack on the leaves was visually assessed as % diseased leaf area.

Puccinia recondita [2] = assay: Curative control of brown rust on wheat (glass house trial); type: in vivo, Puccinia recondita on wheat; conditions: 63 ppm active compound, sprayed after inoculation, assessed after 8 days; untreated plants 90%
Description: as §1
The first two developed leaves of pot-grown wheat seedling were dusted with spores of Puccinia recondita. To ensure the success the artificial inoculation, the plants were transferred to a humid chamber without light and a relative humidity of 95 to 99% and 20 to 24° C. for 24 hours. The next day the plants were cultivated for 3 days in a greenhouse chamber at 20 to 24° C. and a relative humidity between 65 and 70%. Then the plants were sprayed to run-off with an aqueous suspension, containing the concentration of active ingredient or their mixture as described below. The plants were allowed to air-dry. Then the trial plants were cultivated for 8 days in a greenhouse chamber at 20 to 24° C. and a relative humidity between 65 and 70%. The extent of fungal attack on the leaves was visually assessed as % diseased leaf area.

For `CC(=O)NC1(c2ccc(-c3noc(C(F)(F)F)n3)cc2)CC1` [Ex-2, N-[1-[4-[5-(trifluoromethyl)-1,2,4-oxadiazol-3-yl]phenyl]-cyclopropyl]acetamide], the diseased leaf area (Puccinia recondita [1]) was 2% and the diseased leaf area (Puccinia recondita [2]) was 1%.
